Test results published in PMC11853379, “Glioblastoma Cell Migration, Invasion and Vasculogenic Mimicry Downmodulated by Novel uPAcyclin Derivatives” (Cells, 2025).
Like-named read-outs stand apart in the source and are kept apart here. Positions of bridges follow the written chain, without caps; N, C: chain ends. Residues, ends and D or L forms follow the SMILES beside them.

Tests used:
U251-MG cells = type: cell-based, human
Experimental: The migration and invasion assays were performed with Boyden chambers, according to De Vincenzo et al., using 11 × 10^4 U87-MG and U251-MG glioblastoma cells/sample pre-treated for 40 min at 37 °C with the indicated effectors and then allowed to migrate for 3 h or to invade for 5 h at 37 °C toward 5% FBS in DMEM/0.1% BSA. The migrated or invaded cells were reported as a percentage of basal random migration or invasion and analyzed as reported in the Statistical Analyses section. The migration and invasion experiments were conducted in triplicate.
Figure 4 Binding and biological effect of selected Ala peptides on U251-MG migration and invasion. (A) A binding assay was performed using U251-MG cells, as described in the legend of Figure 1. (B) The directional migration toward 10% FBS of U251-MG cells was performed in Boyden chambers, in the presence of the indicated peptides, as described in the legend of Figure 1. (C) An invasion assay was performed toward 5% FBS of U251-MG cells in Boyden chambers, in the presence of the indicated peptides. For all migration and invasion assays, the p-values are ≤0.001, apart from [Ala^1]uPAcyclin with a p ≤ 0.05.

U87-MG cells = experiment: F-actin cytoskeletal rearrangement, rhodamine-phalloidin staining; type: cell-based, human; settings: 100 nM peptide pre-incubated 40 min 37 °C, then 5% FBS 3 h
Experimental: The U87-MG cells were analyzed for their cytoskeletal organization upon exposure to the indicated peptides. Briefly, 2 × 10^5 cells/sample were harvested via mild trypsinization, pre-treated for 40 min at 37 °C with 100 nM of selected peptides, and incubated with 5% FBS for 3 h at 37 °C. Samples diluted in a serum-free medium were included as negative controls. Then cells were fixed, permeabilized, and stained with 0.1 μg/mL rhodamine–phalloidin (Sigma-Merck, St. Louis, MO, USA) for 40 min at rt. To stain nuclei, the slides were incubated with 20 ng/mL DAPI (4′,6-Diamidino-2- phenylindole, Sigma-Merck, St. Louis, MO, USA) for 10 min at rt, mounted with Mowiol Mounting Medium (Sigma-Merck, St. Louis, MO, USA), and examined with the DMI6000 Leica Inverted Fluorescence Microscope ([…], Milan, Italy) at 40× magnification. At least 4 fields/samples were acquired, and the total fluorescence was measured with ImageJ.
Figure 5 Representative images of U87-MG cytoskeletal rearrangements. […] F-actin was detected via staining with rhodamine–phalloidin, as specified in the Methods section, using the Leica DMI 6000 Inverted Microscope at 40× magnification. […] In the histogram, the results are expressed as a percentage of total fluorescence intensity in the absence of FBS and peptide (no peptide); ** p-value < 0.005, * p ≤ 0.05.

[1] = molecular target: T1, αV integrin on U251-MG cells (Homo sapiens, UniProt P06756); experiment: Receptor binding assay: displacement of FITC-uPAcyclin from U251-MG cells; settings: competition with FITC-uPAcyclin
T1 construct: endogenous in cells; host or cells: U251-MG human glioblastoma cells (acid-treated, 4 °C)
T1 sequence (P06756 31-889 limits assumed): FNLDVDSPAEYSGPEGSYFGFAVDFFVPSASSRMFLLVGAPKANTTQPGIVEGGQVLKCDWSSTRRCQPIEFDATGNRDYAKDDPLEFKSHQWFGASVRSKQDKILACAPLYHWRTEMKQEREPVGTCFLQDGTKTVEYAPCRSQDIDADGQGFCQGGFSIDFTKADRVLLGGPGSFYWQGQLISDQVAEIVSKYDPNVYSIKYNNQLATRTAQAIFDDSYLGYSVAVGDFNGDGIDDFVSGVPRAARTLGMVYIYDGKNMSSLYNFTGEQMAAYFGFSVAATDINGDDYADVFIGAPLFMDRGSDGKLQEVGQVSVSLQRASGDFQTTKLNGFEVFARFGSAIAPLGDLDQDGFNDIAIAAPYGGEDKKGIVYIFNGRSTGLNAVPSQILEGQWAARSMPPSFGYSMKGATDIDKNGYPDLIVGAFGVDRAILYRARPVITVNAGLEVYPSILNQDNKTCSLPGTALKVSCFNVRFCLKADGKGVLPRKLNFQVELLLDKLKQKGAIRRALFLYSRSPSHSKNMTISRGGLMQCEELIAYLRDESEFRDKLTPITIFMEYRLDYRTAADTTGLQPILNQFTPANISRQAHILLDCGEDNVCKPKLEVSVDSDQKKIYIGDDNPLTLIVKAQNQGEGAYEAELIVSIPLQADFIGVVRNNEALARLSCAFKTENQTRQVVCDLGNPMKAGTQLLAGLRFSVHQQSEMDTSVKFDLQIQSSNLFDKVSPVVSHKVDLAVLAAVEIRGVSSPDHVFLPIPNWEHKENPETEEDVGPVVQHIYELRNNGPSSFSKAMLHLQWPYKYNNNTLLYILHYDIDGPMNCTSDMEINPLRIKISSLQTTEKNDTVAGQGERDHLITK
T1 sequence (P06756 891-1048 limits assumed): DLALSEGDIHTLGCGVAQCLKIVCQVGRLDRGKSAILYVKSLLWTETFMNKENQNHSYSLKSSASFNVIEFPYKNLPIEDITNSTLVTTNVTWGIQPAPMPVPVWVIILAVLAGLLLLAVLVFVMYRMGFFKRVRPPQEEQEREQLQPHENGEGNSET
Experimental: (§1) The U87-MG and U251-MG cell lines were harvested and acid-treated, as described. Briefly, 2 × 10^6 cells/sample were pre-incubated for 30 min at 4 °C with uPAcyclin and Ala peptides and subsequently exposed to 50 nM FITC-uPAcyclin for 2 h at 4 °C, as described. The experiments were performed three times, with duplicate samples, and analyzed as reported in the statistical analysis.
To rule out the possibility that the effects observed may be restricted to a single cell line, testing was extended to the U251-MG cell line, derived from a human glioblastoma with a mesenchymal-like phenotype with a lower proliferative capacity than U87-MG cells. This cell line was analyzed for the ability to specifically bind the FITC-uPAcyclin, in the presence of increasing concentrations of unlabeled [Ala^2,Ala^5]uPAcyclin, together with the parent uPAcyclin and the selected cyclopeptides [Ala^1]uPAcyclin, [Ala^4]uPAcyclin and [Ala^8]uPAcyclin (Figure 4A). In particular, [Ala^1]uPAcyclin and [Ala^8]uPAcyclin were selected for their contrasting affinity/activity observed on U87-MG glioblastoma cells, while [Ala^4]uPAcyclin was chosen to confirm the importance of Ser4 both in binding and in the anti-migratory activity of uPAcyclin.
Figure 4 Binding and biological effect of selected Ala peptides on U251-MG migration and invasion. […]

[2] = molecular target: T2, integrin αV receptors on the GBM cell surface (U87-MG cells) (Homo sapiens, UniProt P06756); experiment: Receptor binding assay: displacement of FITC-uPAcyclin from U87-MG living cells
T2 construct: endogenous in cells; host or cells: U87-MG human glioblastoma cells (living, acid-treated, 4 °C)
T2 sequence (P06756 31-889 limits assumed): as the sequence (P06756 31-889 limits assumed) above
T2 sequence (P06756 891-1048 limits assumed): as the sequence (P06756 891-1048 limits assumed) above
Experimental: as §1
This assay confirmed that FITC-uPAcyclin binds specifically to both GBM cell lines and to the HEK-293/αV, whereas little interaction is detected with HEK-293 cells (Supporting Information, Table S7). […] To investigate the ability of novel Ala-scan peptides to compete with uPAcyclin for binding to integrin αV receptors on the GBM cell surface, the specific interaction of FITC-conjugated uPAcyclin with U87-MG living cells was tested via a receptor binding assay. U87-MG GBM cells were pre-incubated with increasing concentrations of unlabeled Ala peptides and then exposed to FITC-uPAcyclin (Figure 1A). […] When considering the relative Kdapp of uPAcyclin variants, it can be inferred that the replacement either of each of the three prolines (Pro^2, Pro^5, Pro^6) or Lys^1 increases the binding affinity of the resulting peptide compared to uPAcyclin. In contrast, the Ala mutation of other residues is detrimental to the peptide binding affinity.
Figure 1 Binding of Ala peptides to U87-MG cells and effect of uPAcyclin and Ala peptides on U87-MG cellular migration. (A) A total of 2 × 10^6 U87-MG cells were pre-incubated for 30 min at 4 °C with increasing concentrations of unlabeled uPAcyclin and Ala peptides and then exposed to 50 nM of FITC-uPAcyclin for 2 h at 4 °C. Cell surface-associated fluorescence, as percentage of the sample with […], is shown. Experiments were carried out in duplicate, and the data shown here are representative of three independent experiments. (B) 11 × 10^4 U87-MG cells/sample were pre-treated for 40 min at 37 °C with increasing concentrations of uPAcyclin or the indicated Ala peptides and then assayed in Boyden chambers for 5% FBS-dependent migration for 3 h at 37 °C. At the end of incubation, the filters were processed as described in the Methods section. For clarity here and in the following Figures, Ala-x indicates the peptide with substituted x-position. For both assays, the p-values are in the range of 0.005 ≤ p ≤ 0.001, apart from [Ala1]uPAcyclin in the migration assay with p ≤ 0.05.

| IC50 (U251-MG cells; 3 h) [pM] | IC50 (U251-MG cells; 5 h) [pM] | binding affinity compared to uPAcyclin (in words) ([2]; displacement of FITC-uPAcyclin, U87-MG cells) | Kd ([2]; competition with 50 nM FITC-uPAcyclin, 2 × 10^6 U87-MG cells, pre-incubation 30 min 4 °C, then 2 h 4 °C, three experiments in duplicate, read-out: Kdapp) [pM] | Compound | reduction in total F-actin fluorescence (inhibition of cytoskeletal rearrangements) (U87-MG cells) [%] | binding to U251-MG cells (in words) [1] | inhibition of invasion (in words) (U251-MG cells; U251-MG) | inhibition of migration (in words) (U251-MG cells; U251-MG) |
| --- | --- | --- | --- | --- | --- | --- | --- | --- |
| < 1 | < 1 | – | – | CC(=O)N[C@@H](CCCCN)C(=O)N[C@@H](C)C(=O)N[C@H]1CCC(=O)NCCCC[C@@H](C(N)=O)NC(=O)[C@H](CC(C)C)NC(=O)[C@H](CCC(=O)O)NC(=O)[C@H](CCC(=O)O)NC(=O)[C@@H]2CCCN2C(=O)[C@H](C)NC(=O)[C@H](CO)NC1=O [[Ala^2,Ala^5]uPAcyclin] (Ac-KAESAPEELK-NH2; lactam 3-10) | 50 | binds with the highest affinity | – | – |
| – | – | reduced affinity | – | CC(=O)N[C@@H](CCCCN)C(=O)N1CCC[C@H]1C(=O)N[C@H]1CCC(=O)NCCCC[C@@H](C(N)=O)NC(=O)[C@H](CC(C)C)NC(=O)[C@H](C)NC(=O)[C@H](CCC(=O)O)NC(=O)[C@@H]2CCCN2C(=O)[C@@H]2CCCN2C(=O)[C@H](CO)NC1=O [[Ala^8]uPAcyclin] (Ac-KPESPPEALK-NH2; lactam 3-10) | – | – | most active among the Ala variants | most active among the Ala variants |
| – | – | – | ~100 | CC(=O)N[C@@H](CCCCN)C(=O)N1CCC[C@H]1C(=O)N[C@H]1CCC(=O)NCCCC[C@@H](C(N)=O)NC(=O)[C@H](CC(C)C)NC(=O)[C@H](CCC(=O)O)NC(=O)[C@H](CCC(=O)O)NC(=O)[C@@H]2CCCN2C(=O)[C@@H]2CCCN2C(=O)[C@H](CO)NC1=O [uPAcyclin] (Ac-KPESPPEELK-NH2; lactam 3-10) | 35 | dose-dependent decrease in cell-associated fluorescence | – | – |
